Experimental findings from patent US9057727B2, “Screening methods using G-protein coupled receptors and related compositions” (The General Hospital Corporation, priority 2007, dated 2015) are described below.

“Also recorded” adds a separate entry of the source. Square brackets hold non-standard residues; d marks the D form. Peptide text beside a SMILES is read from it. hArg = N=C(N)NCCCC[C@H](N)C(=O)O; Aib = CC(C)(N)C(=O)O

One test deals with T1, rat PTHR (Rattus norvegicus, UniProt P25961).
T1 sequence (P25961 27-591): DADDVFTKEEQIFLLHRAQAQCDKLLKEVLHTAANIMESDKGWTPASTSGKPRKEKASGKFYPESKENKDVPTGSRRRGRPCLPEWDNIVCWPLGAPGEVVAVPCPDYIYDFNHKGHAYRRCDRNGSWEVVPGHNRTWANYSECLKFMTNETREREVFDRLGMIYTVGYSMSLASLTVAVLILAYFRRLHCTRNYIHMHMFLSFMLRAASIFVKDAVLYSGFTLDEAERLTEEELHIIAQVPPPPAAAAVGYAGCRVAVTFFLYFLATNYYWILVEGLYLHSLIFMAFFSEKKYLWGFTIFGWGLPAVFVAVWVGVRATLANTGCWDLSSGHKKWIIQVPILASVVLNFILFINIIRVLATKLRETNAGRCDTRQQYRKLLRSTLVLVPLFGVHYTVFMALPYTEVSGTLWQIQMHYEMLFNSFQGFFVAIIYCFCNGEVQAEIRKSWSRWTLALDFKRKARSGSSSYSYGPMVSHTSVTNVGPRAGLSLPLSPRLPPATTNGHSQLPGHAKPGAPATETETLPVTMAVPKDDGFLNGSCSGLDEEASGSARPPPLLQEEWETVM
Description: GTPγS inhibition of equilibrium radioligand binding, ROS17/2.8 membranes. Also noted: the rat osteoblastic cell line ROS17/2.8, which endogenously expresses the rat PTHR; endogenous in cells; host or cells: ROS 17/2.8 rat osteosarcoma cells (membranes or intact cells). How it is done:
FIGS. 2A and 2B are graphs showing GTPγS sensitivity of PTH and PTHrP analog binding to the human and rat PTHRs. Radioligand analog binding to the PTHR in membranes prepared from HKRK-B7 (FIG. 2A) or ROS 17/2.8 cells (FIG. 2B) was assessed under near-equilibrium conditions in the absence or presence of varying concentrations of GTPγS. Data are expressed as a percent of radioactivity specifically bound (SB) in the absence of GTPγS. […] The radioligands studied were ^125I-[Nle^8,21,Tyr^34]PTH(1-34)NH2 (SEQ ID NO:123); [Tyr^36]PTHrP(1-36)NH2 (SEQ ID NO:124); [Ile^5,Tyr^36]PTHrP(1-36)NH2 (SEQ ID NO:125) and [Aib^1,3,Nle^8,Gln^10,Har^11,Ala^12,Trp^14,Tyr^15]hPTH(1-15)NH2 (SEQ ID NO:126).
The effects of GTPγS on the binding of these radioligands to the PTHR under approximate-equilibrium conditions was assessed. by incubating with cell membranes for 90 minutes in the absence or presence of GTPγS at varying concentrations. […]
Binding reactions performed with ^125I-[Aib^1,3,M]PTH(1-15) radioligand were assembled and incubated in the wells of the 96-well, Multi-Screen vacuum filtration plates. […] For both radioligands, the non-specific binding was determined in reactions containing a saturating concentration of the unlabeled analog of the radioligand. The specifically bound radioactivity was calculated as a percent of the radioactivity specifically bound in the absence of a competing ligand or GTPγS.

In a further test the target is T2, hPTHR (Homo sapiens, UniProt Q03431).
T2 sequence (Q03431 27-593): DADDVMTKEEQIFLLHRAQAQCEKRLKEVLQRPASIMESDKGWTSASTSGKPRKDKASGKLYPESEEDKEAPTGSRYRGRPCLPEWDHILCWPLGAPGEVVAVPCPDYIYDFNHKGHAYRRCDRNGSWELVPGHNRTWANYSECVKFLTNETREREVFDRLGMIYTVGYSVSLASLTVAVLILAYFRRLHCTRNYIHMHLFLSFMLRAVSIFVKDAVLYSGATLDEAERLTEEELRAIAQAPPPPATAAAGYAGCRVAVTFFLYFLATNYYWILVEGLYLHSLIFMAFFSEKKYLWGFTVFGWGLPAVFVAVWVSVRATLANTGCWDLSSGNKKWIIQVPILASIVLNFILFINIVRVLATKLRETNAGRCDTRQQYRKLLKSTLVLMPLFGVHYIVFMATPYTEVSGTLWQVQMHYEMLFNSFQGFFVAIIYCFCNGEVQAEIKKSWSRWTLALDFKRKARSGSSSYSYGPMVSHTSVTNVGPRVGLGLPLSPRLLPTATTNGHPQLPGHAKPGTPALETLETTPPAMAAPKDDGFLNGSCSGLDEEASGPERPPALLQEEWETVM
Description: Radioligand dissociation from PTHR in HKRK-B7 membranes with or without GTPγS. Format: binding. Also noted: expressed in transfected cells.

The target of test [1] is T3, PTHR lacking the extracellular N-terminal (N) domain (delNT) (Homo sapiens, UniProt Q03431).
T3 construct: expressed in transfected cells
T3 sequence (Q03431 with tags, fused parts or gaps limits assumed): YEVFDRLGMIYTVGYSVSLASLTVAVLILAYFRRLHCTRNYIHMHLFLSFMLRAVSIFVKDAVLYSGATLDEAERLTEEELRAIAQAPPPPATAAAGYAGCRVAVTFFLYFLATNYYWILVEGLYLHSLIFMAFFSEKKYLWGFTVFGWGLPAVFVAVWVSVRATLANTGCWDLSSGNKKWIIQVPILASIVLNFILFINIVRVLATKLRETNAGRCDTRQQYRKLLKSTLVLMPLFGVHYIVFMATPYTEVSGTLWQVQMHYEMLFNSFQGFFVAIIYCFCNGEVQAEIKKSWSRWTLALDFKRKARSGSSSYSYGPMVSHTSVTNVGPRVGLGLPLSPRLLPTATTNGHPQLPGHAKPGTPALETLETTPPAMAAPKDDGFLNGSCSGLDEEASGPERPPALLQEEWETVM
Description: cAMP activity in cells expressing PTHR lacking the N domain (delNT). The test is classed as cell-based.

The subject of the next test is NaPi-IIc. Description: NaPi-IIc immunostaining in renal PT cells of injected mice. The test is classed as in vivo. The following applies: interval 4 to 6 h. The source says:
(§1) To impair PLC signaling, we replaced alanine at position 1 of M-PTH(1-28) with tryptophan, in accordance with findings of Bisello and colleagues (J Biol Chem 277:38524-30, 2002) showing that such bulky substitutions at this position selectively impair PLC signaling.

For test [2], the system named is LLC-PK1 cells expressing NaPi-IIc transporter and the rat PTHR. The experiment in a line: 32P uptake in LLC-PK1 cells expressing NaPi-IIc transporter and rat PTHR. Format: cell-based.
Text: as §1

A short description of test [3]: Plasma phosphate and serum ionized calcium in mice after subcutaneous injection. The test is classed as in vivo. The following applies: 50 nmol/kg s.c. Here is the method:
FIGS. 10A and 10B are graphs showing in vivo plasma phosphate and serum ionized calcium levels in mice treated with PTH analogs. […] Serum ionized calcium concentrations were determined using a Chiron Diagnostics Model 634 Ca^++/pH analyzer. Data in A are means (±s.e.m.) of one experiment using six mice (n=6) for each injection condition; similar results were obtained in three other experiments. Data in B are means (±s.e.m.) of two experiments, each performed using triplicate mice (n=3) for each injection condition.
The mice were further analyzed for changes in plasma phosphate and serum ionized calcium concentrations. […] At the indicated times after injection, blood was withdrawn from the tail vein and the concentrations of plasma phosphate (FIG. 10A) and serum ionized calcium (FIG. 10B) were determined. Serum ionized calcium concentrations were determined using a Chiron Diagnostics Model 634 Ca^++/pH analyzer. Plasma phosphate concentrations were measured using a Phosphorous Liqui-UV assay kit (StanBio Laboratory, Boerne, Tex.).
Wild-type mice were injected subcutaneously with vehicle (0.9% NaCl/0.05% Tween-20), or vehicle containing a PTH peptide at a dose level of 10 to 1000 nmol/kg of body weight. At indicated times after injection, blood was withdrawn from the tail vein, and the amount of cAMP in the resulting plasma was quantified by radioimmuno assay. […]

Test [4] deals with T4, ROS 17/2.8 cells (endogenous rat PTHR) (Rattus norvegicus, UniProt P25961).
T4 construct: the rat osteoblastic cell line ROS17/2.8, which endogenously expresses the rat PTHR; endogenous in cells; host or cells: ROS 17/2.8 rat osteosarcoma cells (membranes or intact cells)
T4 sequence (P25961 27-591): T1 sequence (P25961 27-591)
The experiment in a line: Acute cAMP response in ROS 17/2.8 rat osteoblastic cells. Format: cell-based. The following applies: 10^−7 M, hPTH(1-28) 10^−6 M, basal 3.7±0.4.
Description: The resulting intracellular cAMP formed was quantified by radioimmuno assay. […] Curve fits were obtained by non-linear regression analysis.
The data in FIG. 21B are expressed as a percent of the maximum response observed for each ligand, determined by incubating the cells with ligand in the presence of IBMX for 10 minutes (no ligand wash-out).

Test [5] can be described thus: Plasma phosphate in mice (20 nmol/kg). Format: in vivo.
Text: as §1

Test [6] deals with opossum kidney (OK) cell line. Description: Phosphate uptake inhibition in opossum kidney cells. Format: cell-based. To be noted: 10 minute exposure, 1×10^−7 M.
The test system of the next test is NaPi-IIa. The experiment in a line: NaPi-IIa staining in renal PT cells of injected mice. To be noted: mouse, in vivo.
Text: To help elucidate further the signaling mechanisms by which PTH ligands regulate renal phosphate transport, we developed a derivative of M-PTH(1-28) that is defective for PLC/PKC signaling, yet retains potent cAMP/PKA signaling activity. Such a peptide allows for study of the relative roles of the PKA and PKC signaling pathways in modulating the function and surface expression of the Pi transporters NaPi-IIa and NaPi-IIc in proximal tubule (PT) cells. The analog M-PTH(1-28) (M=Ala^1,Aib^3,Gln^10, Har^11,Trp^14,Arg^19), a potent agonist for cAMP and IP3 signaling pathways, induces, when injected into mice, prolonged hypophosphatemic and hypercalcemic effects.
as §1

Test [7] is described as follows: Plasma cAMP in mice after subcutaneous injection. Format: in vivo. Here is the method: FIGS. 9A-9D are graphs showing in vivo plasma cAMP levels in mice treated with PTH analogs. Wild-type mice were injected subcutaneously with vehicle (0.9% NaCl/0.05% Tween-20), or vehicle containing a PTH peptide at a dose-level of 10 to 1,000 nmol of peptide per kg of body weight, and at indicated times after injection, blood was withdrawn from the tail vein, and the amount of cAMP in the resulting plasma was quantified by radioimmuno assay. Each curve corresponds to a peptide at a defined concentration, as indicated in the graph keys. The plasma cAMP concentrations are plotted as picomole per μl plasma.
Wild-type mice were injected subcutaneously with vehicle (0.9% NaCl/0.05% Tween-20), or vehicle containing a PTH peptide so as to achieve a concentration ranging from 10 to 1000 nmol/kg of body weight. At the indicated times after injection, blood was withdrawn from the tail vein, and the amount of cAMP in the resulting plasma was quantified by radioimmuno assay (FIGS. 9A-9D).
Wild-type mice were injected subcutaneously with vehicle (0.9% NaCl/0.05% Tween-20), or vehicle containing a PTH peptide at a dose level of 10 to 1000 nmol/kg of body weight. At indicated times after injection, blood was withdrawn from the tail vein, and the amount of cAMP in the resulting plasma was quantified by radioimmuno assay. Ionized calcium in serum was measured as above and phosphate was measured by a U.V. spectroscopic kit assay.

Description for hPTHR: At each time point, aliquots were removed from the reaction tubes and immediately subjected to rapid vacuum filtration using a 96-well vacuum filtration plate to separate bound from free radioactivity. Non-specific binding was determined in tubes containing the unlabeled ligand (5×10^−7 M) during both the pre-incubation and dissociation phases. The specifically bound radioactivity (SB) at each time point was then expressed as the percent of the specific binding observed at t=0. […] Curves were fit to the data using either a two-phase (FIGS. 1A and 1B) or single phase (FIG. 1C) exponential decay equation. […]
Reactions contained a total membrane protein concentration of 20 to 100 μg/mL, and a total radioactivity concentration of approximately 150,000 cpm/ml. […] At the end of the reaction, bound and free radioligand were separated by vacuum filtration using a 96-well vacuum filter plate and vacuum filter apparatus (Multi-Screen system with Durapore HV, 0.65 μM filters; Millipore Corp., Milford, Mass.); the air-dried filters were then detached from the plate and counted for gamma radioactivity using a gamma counter.
These studies were performed as bulk reactions in 15 mL round-bottom polystyrene snap-cap tubes (Falcon) (total reaction volume=5.0 ml). […] The specifically bound radioactivity at each time point was calculated as a percent of the radioactivity specifically bound at t=0.

For “^125I[Tyr^36]PTHrP(1-36)NH2 [^125I-PTHrP(1-36)]”, the “sensitivity of binding to GTPγS, in words” value at rat PTHR was “strongly inhibited”. Further, the “fraction of complexes stable, decaying slowly” value at hPTHR (absence of GTPγS) stood at 68%. Also, the “fraction of complexes unstable, decaying rapidly” value on hPTHR (with GTPγS) stood at 72%.

As for PTHrP(1-14) (AVSEHQLLHDKGKS), in test [1], the “cAMP potency on delNT compared with PTH counterparts, in words” value is listed as “much less potent for cAMP activity”.

As to `CC[C@H](C)[C@H](NC(=O)[C@H](CCC(=O)O)NC(=O)C(C)(C)NC(=O)[C@@H](NC(=O)[C@H](C)N)C(C)C)C(=O)N[C@@H](CCC(N)=O)C(=O)N[C@@H](CC(C)C)C(=O)N[C@@H](CCSC)C(=O)N[C@@H](Cc1c[nH]cn1)C(=O)N[C@@H](CCC(N)=O)C(=O)N[C@@H](CCCCNC(=N)N)C(=O)N[C@@H](C)C(=O)N[C@@H](CCCCN)C(=O)N[C@@H](Cc1c[nH]c2ccccc12)C(=O)N[C@@H](CC(C)C)C(=O)N[C@@H](CC(N)=O)C(=O)N[C@@H](CO)C(=O)N[C@@H](CCSC)C(=O)N[C@@H](CCCNC(=N)N)C(=O)N[C@@H](CCCNC(=N)N)C(=O)N[C@H](C(=O)N[C@@H](CCC(=O)O)C(=O)N[C@@H](Cc1c[nH]c2ccccc12)C(=O)N[C@@H](CC(C)C)C(=O)N[C@@H](CCCNC(=N)N)C(=O)N[C@@H](CCCCN)C(=O)N[C@@H](CCCCN)C(=O)N[C@@H](CC(C)C)C(N)=O)C(C)C` [[A^1,Aib^3,M]-PTH(1-28), [Ala^1,12,Aib^3,Gln^10,homoarginine^11,Trp^14,Arg^19]human(h)PTH(1-28)NH2] (H-AV[Aib]EIQLMHQ[hArg]AKWLNSMRRVEWLRKKL-NH2; N-terminus assumed), the “NaPi-IIc immunostaining, in words” value in the test on NaPi-IIc is reported as “reduced”. Besides, the “^32P uptake, in words” value in test [2] was “inhibited”. Moreover, the “duration of serum calcium and plasma phosphate responses, in words” value in [3] was “more prolonged than those to hPTH(1-34)NH2”. Besides, the “maximum cAMP response (ligand with IBMX 10 minutes, no wash-out)” value in test [4] worked out at 71±1 pmole/well. Further, in test [5], the “time of maximal suppression of plasma phosphate” value turned out to be 2 h and the “time of recovery of plasma phosphate to vehicle control levels” value came out at 6 h. Besides, the “duration of phosphate uptake inhibition, in words” value in test [6] was “dramatically prolonged inhibitory effect on phosphate uptake”. In the test on NaPi-IIa, the “apical and cytoplasmic NaPi-IIa staining, in words” value was “prolonged reductions in NaPi-IIa immunoreactivity; also recorded: remained reduced for at least six hours”. Moreover, the “dose producing comparable increase in plasma cAMP” value in test [7] was found to be 50 nmol/kg.
